Test results reported in US20070179135A1 (priority 2006, published 2007).
Values after ≈ are worked out from the molar mass of the structure shown. Read-outs that look alike come from different tables or passages of the source.

Tests used:
[1] = system: Monocyte/macrophage; assay: XTT viability (TC50) in monocyte/macrophage assay; conditions: for CC50: read-out: TC50 (50% cytotoxicity), column head blank
Description: Monocyte Isolation and Culture.
(§1) XTT Staining for Viability. Absence of toxicity was assessed by reduction of 2,3-bis(2-methoxy-4-nitro-5-sulfophenyl)-5-[(phenylamino)carbonyl]2H-tetrazolium hydroxide (XXT). 50 μl of a solution containing 1 mg/ml XTT and […] phenazine methanesulfate (PMS) was added per well, and the plate was incubated for 4 hours at 37° C. Adhesive plate sealers were used in place of the lids so that the sealed plates could be inverted several times to mix the soluble reaction product. Following this incubation, the plates were read spectrophotometrically at 450 nm to assess the degree of reduction product.

[2] = system: PBMC; assay: XTT viability (TC50) in PBMC assay; conditions: PBMC, XTT; for CC50: read-out: TC50 (50% cytotoxicity)
Description: as §1

[3] = system: HIV in latently infected U1 cells; assay: TNF induced U1 cells (RT), latently infected cells; assay type: cell-based
[4] = system: U1 cells; assay: XTT viability (TC50) in TNF induced U1 cells; assay type: cell-based
Text: Latently Infected Cells. […] PBMC Isolation and Blasting.
XTT Staining for Viability.

[5] = system: HIV-1; conditions: monocyte/macrophage, HIV-1, p24 ELISA; for IC50: read-out: IC50 (50% inhibition of virus replication)
Description: (§5) Monocyte Isolation and Culture. Peripheral blood monocytes (PBM) were obtained from healthy HIV- and hepatitis-negative donors by ficoll hypaque purification (optionally using recombinant IFNγ. After 7 days, the cultures were washed to remove non adherent cells, and test compounds were added followed by HIV-1. Cultures were washed a final time by media removal 24 hours post infection, fresh test compound was added, and the cultures continued for an additional seven days. Virus replication was then measured by expression of supernatant p24 antigen by commercially available ELISA assays. AZT was used as a positive control run in parallel with each determination.
(§6) Analysis of p24. Viral protein production (p24) was assessed by standard ELISA.

[6] = system: HIV-1; conditions: PBMC, HIV-1, RT activity, 7 days; for IC50: read-out: IC50 (50% inhibition of virus replication)
Description: (§7) PBMC Isolation and Blasting. Peripheral blood mononuclear cells (PBMC) obtained from healthy HIV- and hepatitis-negative patients were washed to remove residual gradient separation material. The washed cells were then counted, and their viability assessed. Following this initial preparation, the cells are suspended in RPMI 1640 medium supplemented with 15% inactivated fetal bovine serum, 2 nM L-glutamine, 100 U/ml penicillin, 100 μg/ml streptomycin, and 10 μg/ml gentamycin with 2 μg/ml PHA at 1×10^6 cells/ml. Following a 2 to 3 day incubation (37° C., 5% CO2), the cells were collected by centrifugation, washed, and resuspended in the same medium, supplemented with recombinant IL-2. The cultures were then maintained until use by ½ volume change with fresh IL-12 containing medium every 3 days.
(§8) PBMC Assay. When ready for use, PBMCs from a minimum of two donors that have been blasted with PHA and IL-1 were mixed, counted, and viability determined by trypan blue exclusion. The cells were then resuspended in […] cells/ml in RPMI 1640 supplemented with 15% fetal bovine serum (heat inactivated), 2 mM L-glutamine, 100 U/ml penicillin, 100 μg/ml streptomycin, 10 μg/ml gentamycin and IL-2 (20 U/ml). 50 tl of cells were then distributed to the inner 60 wells of a 96 well plate. Each plate contains cell control wells (cells only), virus control wells (cells plus virus), drug toxicity control wells (cells plus test compound), drug colorimetric control wells (drug only) as well as experimental wells (drug plus cells plus virus). Diluted compounds were then added to the microliter plate followed by the appropriate pre-titered strain of HIV-1. All samples were assayed in triplicate with a sister plate for the determination of compound toxicity. The final volume per well was 200 μl. The assay was incubated for 7 days at 37° C., 5% CO2, after which supernatants were collected for analysis of RT activity and sister plates for assessment of cell viability.
(§9) Reverse Transcriptase Assay. HIV reverse transcriptase was measured in cell free supernatants. Titrated TTP was resuspended in distilled H2O at 5 Ci/ml. Poly rA and oligo dT were prepared as a stock solution which was kept at −20° C. The RT reaction buffer (125 μl 1M EGTA, 125 μl dH20, 110 μl 10% SDS, 50 μl 1M Tris (pH 7.4), 50 μl 1M DTT, and 40 M1 1M MgCL2) was prepared fresh. The three solutions were then mixed together in a ratio of 2 parts TTP, 1 part polyrA:oligo dT, and 1 part buffer. Ten μl of this reaction mixture was then placed in a round bottom micro-liter plate, and 15 ul of virus-containing supematant was added. The plate was incubated at 37° C. in a water bath with a solid support for 60 minutes. Following the reaction, the volume was spotted onto pieces of DE81 paper, washed 5 times for 5 minutes each in a 5% sodium phosphate buffer, 2 times for 1 minute in distilled water, 2 times for 1 minute each in 70% ethanol, and then dried. Opti-Fluor 0 was then added to each sample and incorporated radioactivity was quantified using a scintillation counter.

[7] = system: HIV-1; conditions: for antiviral activity (in words): pooled data of Table 1
[8] = XTT viability (TC50) in PBMC assay; conditions: human, PHA-blasted PBMCs
Description: as §1

[9] = system: SNB-7 (CNS); assay: Antineoplastic assessment, SRB assay, SNB-7; assay type: cell-based; conditions: read-out: IC50 Molar Values
Description: (§2) Cell Lines. Cell lines indicated in table 2 were propagated under sterile conditions in RPMI 1640 or DMEM with 10% fetal calf serum, 2 mM L-glutamine, and sodium bicarbonate (“complete medium”) and incubated at 37° C. 5% CO2 and 95% humidity. Each cell line was subcultured once or twice weekly, and they were periodically screened for mycoplama contamination (positive cultures were cured over three passages with antibiotic). Only cultures free of mycoplasma were used for antineoplastic assessment. Antineoplastic Assessment. Cells from each cell line were harvested, pelleted to remove the media, and then suspended in fresh complete medium. The cell count was determined and viability was measured with propidium iodide staining. The cells were adjusted with complete medium to a density of 5×10^3 cells/ml. […]
(§3) Following acclamation, the compounds indicated in table 2 were diluted in complete medium. […] Each culture plate contains a cell control (8 wells, mock treated with complete medium), a medium control (7 wells with medium used to subtract out signal generated by media conditions), a solvent control (8 wells), and an air blank (1 well) for calibrating the plate reader. […]
(§4) Five days after treatment, the cells were analyzed for antineoplastic effects using the SRB assay to calculate IC50 for each treatment.

[10] = system: DLO-1 (colon); assay: Antineoplastic assessment, SRB assay, DLO-1; assay type: cell-based; conditions: read-out: IC50 Molar Values
Description: as §2, §3, §4

[11] = system: NCI-H23 (lung); assay: Antineoplastic assessment, SRB assay, NCI-H23; assay type: cell-based; conditions: Homo sapiens, NCI-H23, 120 h, read-out: IC50 Molar Values
Description: as §2, §3, §4

[12] = system: PC-3 (prostate); assay: Antineoplastic assessment, SRB assay, PC-3; assay type: cell-based; conditions: read-out: IC50 Molar Values
Description: as §2, §3, §4

[13] = system: CAKI-1 (renal); assay: Antineoplastic assessment, SRB assay, CAKI-1; assay type: cell-based; conditions: read-out: IC50 Molar Values
Description: as §2, §3, §4

[14] = system: six cell lines; assay: Antineoplastic assessment, SRB assay, summary over six cell lines; assay type: cell-based; conditions: 120 h, read-out: IC50 in six cell lines
Description: as §2, §3, §4

[15] = system: HIV-1; assay: microbe, parasite or virus in culture; conditions: Human immunodeficiency virus 1, PBMC, 168 h, read-out: IC50 (50% inhibition of virus replication)
Description: as §7, §8, §9

[16] = system: HIV-1; assay: microbe, parasite or virus in culture; conditions: Human immunodeficiency virus 1, read-out: IC50 (50% inhibition of virus replication)
Description: as §5, §6

[17] = biological target: CB2 receptor (Homo sapiens, UniProt P34972); conditions: cited from earlier work; for Ki: CB2 receptor; for Ki-CB1/Ki-CB2 ratio: selectivity CB1 versus CB2
[18] = system: ZR-75-1 (mammary); assay: Antineoplastic assessment, SRB assay, ZR-75-1; assay type: cell-based; conditions: five days, read-out: IC50 Molar Values
Description: as §2, §3, §4

[19] = Human immunodeficiency virus 1, read-out: IC50 (50% inhibition of virus replication)

CB2 receptor, sequence (P34972 whole entry): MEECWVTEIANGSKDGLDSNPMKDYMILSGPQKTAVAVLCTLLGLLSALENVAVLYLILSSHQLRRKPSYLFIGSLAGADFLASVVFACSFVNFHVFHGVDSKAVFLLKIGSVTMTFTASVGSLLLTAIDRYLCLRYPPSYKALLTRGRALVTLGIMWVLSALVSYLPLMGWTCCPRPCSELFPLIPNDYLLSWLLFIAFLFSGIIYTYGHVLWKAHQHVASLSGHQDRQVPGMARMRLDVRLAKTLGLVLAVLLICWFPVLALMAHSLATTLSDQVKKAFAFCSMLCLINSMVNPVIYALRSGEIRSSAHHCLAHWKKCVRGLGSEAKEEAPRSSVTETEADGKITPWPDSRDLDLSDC

CCCCCc1cc(O)c2c(c1)OC(C)(C)C1CCC(C(=O)O)=CC21 (centres unmarked)
TC50 (50% cytotoxicity), column head blank [1]: 76.73 µg/mL (≈ 223 µM)
TC50 (50% cytotoxicity) [2]: 71.1 µg/mL (≈ 206 µM)
IC50 (50% inhibition of virus replication) [3]: 6.69 µg/mL
TC50 (50% cytotoxicity) [4]: 23.71 µg/mL (≈ 68.8 µM)
IC50 (50% inhibition of virus replication) [5]: 7.79 µg/mL
IC50 (50% inhibition of virus replication) [6]: 39.09 µg/mL
antiviral activity (in words) [7]: moderate antiviral activity

CC(C)CCCC(C)(C)c1cc(O)cc(O)c1
CC50 at 7 days [8]: 44.6 µM
IC50 ([9]; Homo sapiens, SNB-7, 120 h): 95 µM
IC50 ([10]; 120 h): 90 µM
IC50 [11]: 77 µM
IC50 ([12]; 120 h): 84 µM
IC50 ([13]; Homo sapiens, CAKI-1, 120 h): 93 µM
IC50 [14]: 77 to 95 µM
melting point: 95 to 96 °C
antiviral activity (in words) [7]: moderate antiviral activity
IC50 [15]: 14.8 µM

COc1cc(O)cc(C(C)(C)CCCC(C)C)c1 [3-methoxy-5-(1,1,5-trimethylhexyl)phenol]
CC50 at 7 days [8]: 46.4 µM
IC50 [15]: 39.9 µM

COc1cc(C(C)(C)CCCC(C)C)cc(OC)c1O [4-(1,1,5-trimethylhexyl)-2,6-dimethoxy phenol]
CC50 at 7 days [8]: 50.9 µM
antiviral activity (in words) [7]: moderate antiviral activity
IC50 [15]: 15.8 µM

COc1cc(OC)cc(C(C)(C)CCCC(C)C)c1 [4-(1,1,5-trimethylhexyl)-2,6-dimethoxybenzene]
CC50 at 7 days [8]: > 200 µM
IC50 [15]: > 200 µM

CCCCCc1cc(O)c2c(c1)OC(C)(C)[C@@H]1CCC(C)=C[C@@H]21 [A9 tetrahydrocannabinaol, reference compound]
TC50 (50% cytotoxicity), column head blank [1]: >0.1 µg/mL
TC50 (50% cytotoxicity) [2]: >0.1 µg/mL
IC50 (50% inhibition of virus replication) [3]: 0.06 µg/mL
TC50 (50% cytotoxicity) [4]: 0.088 µg/mL (≈ 0.28 µM)
IC50 (50% inhibition of virus replication) [5]: >0.1 µg/mL
IC50 (50% inhibition of virus replication) [6]: 0.07 µg/mL

Cc1cn([C@H]2C[C@H](N=[N+]=[N-])[C@@H](CO)O2)c(=O)[nH]c1=O [AZT, reference compound]
CC50 [1]: > 4 µM

C=C(C)[C@@H]1CCC(C)=C[C@H]1c1c(O)cc(CCCCC)cc1O [Cannabidiol, reference compound]
TC50 (50% cytotoxicity), column head blank [1]: 22.87 µg/mL (≈ 72.7 µM)
TC50 (50% cytotoxicity) [2]: 7.76 µg/mL (≈ 24.7 µM)
IC50 [3, 19]: 2.76 µg/mL
TC50 (50% cytotoxicity) [4]: 7.8 µg/mL (≈ 24.8 µM)
antiviral activity (in words) [7]: moderate antiviral activity
IC50 [16]: 8.18 µg/mL (≈ 26 µM)
IC50 [15]: 1.52 µg/mL

CCCCCc1cc(O)c2c(c1)OC(C)(C)c1ccc(C)cc1-2 [Cannabinol]
TC50 (50% cytotoxicity), column head blank [1]: 13.07 µg/mL (≈ 42.1 µM)
TC50 (50% cytotoxicity) [2]: 7.66 µg/mL (≈ 24.7 µM)
IC50 [3, 19]: 5.14 µg/mL
TC50 (50% cytotoxicity) [4]: 5.26 µg/mL (≈ 16.9 µM)
IC50 [16]: 7.7 µg/mL (≈ 24.8 µM)
IC50 [15]: 6.91 µg/mL

Nc1ccn([C@H]2CC[C@@H](CO)O2)c(=O)n1 [DdC, reference compound]
CC50 [1]: > 10 µM
CC50 [2]: > 10 µM
IC50 [5]: 0.0028 µM
IC50 [6]: 0.0876 µM

CCO [EtOH]
TC50 (50% cytotoxicity), column head blank [1]: >1%
TC50 (50% cytotoxicity) [2]: >0.1%
IC50 (50% inhibition of virus replication) [3]: >0.1%
TC50 (50% cytotoxicity) [4]: >0.1%
IC50 (50% inhibition of virus replication) [5]: 0.06%
IC50 (50% inhibition of virus replication) [6]: >0.1%

CCCCCCC(C)(C)c1cc(OC)c2c(c1)OC(C)(C)[C@@H]1CC=C(C)C[C@@H]21 [Example L759633]
Ki [17]: 0.0064 ± 0.0022 µM
Ki-CB1/Ki-CB2 ratio [17]: 162.97

C=C1CC[C@@H]2[C@@H](C1)c1c(OC)cc(C(C)(C)CCCCCC)cc1OC2(C)C [Example L759656]
Ki [17]: 0.0118 ± 0.0025 µM
Ki-CB1/Ki-CB2 ratio [17]: 414.24

CCCCCn1cc(C(=O)c2cccc3ccccc23)c2ccccc21 [JWH-018]
Ki [17]: 0.00294 ± 0.00265 µM
Ki-CB1/Ki-CB2 ratio [17]: 3.23

CCCCCc1cc(O)cc(O)c1 [Olivitol]
CC50 [1]: 75.9 µM
CC50 [2]: > 100 µM
IC50 ([3]; read-out: IC50 (50% inhibition of virus replication)): 22.5 µM
CC50 ([4]; read-out: TC50 (50% cytotoxicity)): 77.5 µM
IC50 ([9]; SNB-7 (CNS), SRB, five days): 220 µM
IC50 ([10]; DLO-1 (colon), SRB, five days): 230 µM
IC50 [18]: 200 µM
IC50 ([12]; PC-3 (prostate), SRB, five days): 200 µM
IC50 ([13]; CAKI-1 (renal), SRB, five days): 220 µM
IC50 [5]: 63.7 µM
IC50 [6]: 16.9 µM
antiviral activity compared between cell systems (in words) ([7]; PBMCs and TNFa induced U1 cells versus monocytes/macrophages or uninduced U1 cells): more pronounced in the PBMCs and TNFa induced U1 cells than in monocytes/macrophages or uninduced U1 cells
antiviral activity (in words) [7]: moderate antiviral activity

Cc1cc(O)cc(O)c1 [Orcinol]
CC50 at 7 days [8]: > 200 µM
IC50 [15]: > 200 µM

Oc1cccc(O)c1 [Resorciol]
CC50 [2]: > 200 µM
IC50 [6]: > 200 µM
